According to PubChem BioAssay (NCI):
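Five compound concentrations were applied to cells in 96-well plates for 48 hours; endpoints were derived by simple linear interpolation of the resulting dose-response curve. The concentration for 50% growth inhibition is given as GI50. At the TGI there is no net growth.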

Assays:
Assay in all cases: growth of human tumour cells (NCI), 48 h
[1] = test system: HCT-15 colon
[2] = test system: RPMI-8226 leukemia
[3] = test system: MCF7 breast
[4] = test system: PC-3 prostate
[5] = test system: UO-31 renal
[6] = test system: SF-268 CNS
[7] = test system: OVCAR-3 ovarian
[8] = test system: SN12C renal
[9] = test system: TK-10 renal
[10] = test system: A498 renal

Row | Compound | GI50 [1] | TGI [1] | GI50 [2] | TGI [2] | GI50 [3] | TGI [3] | GI50 [4] | TGI [4] | GI50 [5] | TGI [5] | GI50 [6] | TGI [6] | GI50 [7] | TGI [7] | GI50 [8] | TGI [8] | GI50 [9] | TGI [9] | TGI [10] | GI50 [10]
1 | O[C@H]1CO[C@H]2[C@@H]1OC[C@@H]2Oc1ccc(Nc2ccnc(Nc3ccc(O[C@H]4CO[C@H]5[C@@H]4OC[C@@H]5O)c(Cl)c3)n2)cc1Cl | 2.32 µM | 6.6 µM | 1.05 µM | 3.24 µM | 1730 nM | 5.44 µM | 2.26 µM | 11.2 µM | 1.55 µM | 3.06 µM | 1630 nM | 4.98 µM | 1.56 µM | 7.17 µM | 1.59 µM | 6.15 µM | 2140 nM | 10.5 µM |  | 
2 | O=C1c2ccccc2-c2c1c1ccc([N+](=O)[O-])cc1c(=O)n2CCCBr | > 100 µM | > 100 µM | 36 µM | > 100 µM | 153 nM | > 100 µM | > 100 µM | > 100 µM | > 100 µM | > 100 µM | > 100000 nM | > 100 µM | > 100 µM | > 100 µM | > 100 µM | > 100 µM |  |  |  | 
3 | CCN(C(=O)N1CCN(c2cc3c(cc2F)c(=O)c(C(=O)O)cn3C2CC2)CC1)c1nc(-c2ccc(C)cc2)cs1 | 0.341 µM | > 100 µM |  |  | 1310 nM | > 100 µM | 0.375 µM | > 100 µM | 0.322 µM | > 100 µM | 1060 nM | > 100 µM | 0.368 µM | 2.47 µM | 0.365 µM | > 100 µM | 2700 nM | > 33.3 µM | 0.486 µM | 
4 | CCOC(=O)C1Oc2ccc([N+](=O)[O-])c3c2C1(O)CCC3 (stereo not drawn) |  | > 100 µM |  | > 100 µM |  |  |  |  |  | > 100 µM |  | > 100 µM |  | > 100 µM |  | > 100 µM |  | > 100 µM | > 100 µM | 
5 | COc1cc2c(cc1OC(=O)CC(C)O)C1C(OC2=O)C(OC(C)=O)C=C2CCN(C)[C@H]21 (stereo partly drawn) |  |  |  |  |  |  |  |  |  | > 100 µM |  | > 100 µM |  | > 100 µM |  | > 100 µM |  | 65.1 µM | 45.5 µM | 
6 | CCCCNCC(=O)O[C@]1(CC)C(=O)OCc2c1cc1n(c2=O)Cc2cc3ccccc3nc2-1 |  | > 100 µM |  | 5.77 µM |  |  |  | > 100 µM |  | 1.71 µM |  | > 95.6 µM |  | 12.8 µM |  | > 16.2 µM |  | > 96.5 µM | 4.64 µM | 
7 | C=CCOC1OC(CO[Si](C)(C)C(C)(C)C)C(OCc2ccccc2)C(OCc2ccccc2)C1OCc1ccccc1 (stereo not drawn) |  | > 100 µM |  | > 100 µM |  | > 100 µM |  | > 100 µM |  | > 100 µM |  | > 100 µM |  | > 100 µM |  | > 100 µM |  | > 100 µM |  | 
8 | O=C(O)C1(P(=O)(O)O)CC1 |  | > 100 µM |  | > 100 µM |  |  |  |  |  | > 100 µM |  | > 100 µM |  | > 100 µM |  | > 100 µM |  | > 100 µM | > 100 µM | 
9 | O=C(C1CCCCC1)[C@@H]1[C@]2(C(=O)NC3CCCCC32)[C@@H]2CCCN2[C@@]12C(=O)NC1CCC(Cl)CC12 (stereo partly drawn) | 56.5 µM | 211 µM | 32.6 µM | 103 µM | 41800 nM | 185 µM |  |  | 54.1 µM | 226 µM | 119000 nM | 288 µM | 78.2 µM | 210 µM | 61.2 µM | 197 µM | 266000 nM | 448 µM | 265 µM | 130 µM
10 | O=C1C(=O)N(c2ccc(Cl)c(Cl)c2)C(=O)C(=O)C1c1nc2ccccc2s1 |  | > 100 µM |  | > 100 µM |  |  |  |  |  | > 100 µM |  | > 100 µM |  | > 100 µM |  | > 100 µM |  | > 100 µM | > 100 µM | 
11 | COc1cc2c(c(OC)c1OC)-c1ncc3cc(OC)c(OC)c(OC)c3c1C2 | 23.4 µM | 83.5 µM | > 100 µM | > 100 µM |  |  | 44.2 µM | > 100 µM | 20.2 µM | > 100 µM |  |  | 19.1 µM | 46.3 µM | 17.6 µM | 73.7 µM | 23300 nM | 80.6 µM |  | 
12 | Cn1c2c(cc(S(=O)(=O)c3ccccc3)c1=O)CCc1c-2cnn1-c1ccc(Cl)cc1 | 3.02 µM | > 100 µM |  |  | 4590 nM | > 100 µM |  |  | 1.87 µM | 6.09 µM | 2240 nM | 5.12 µM | 2.45 µM | 5.67 µM |  |  | 2260 nM | 5.17 µM | 5.03 µM | 1.06 µM
13 | Cc1c(C#N)c(=O)[nH]c(=O)n1CCN1CCN(C(=O)NCCCCCCNC(=O)N2CCN(CCn3c(C)c(C#N)c(=O)[nH]c3=O)CC2)CC1 |  | > 100 µM |  | > 100 µM |  |  |  |  |  |  |  |  |  | > 100 µM |  | > 100 µM |  | > 100 µM | > 100 µM | 
14 | O=S(=O)(c1ccccc1)C(CN1CCCCC1)S(=O)(=O)c1ccccc1 |  | > 100 µM |  | > 100 µM |  |  |  |  |  | > 100 µM |  | > 100 µM |  | > 100 µM |  | > 100 µM |  | > 100 µM |  | 
15 | CS(=O)(=O)Oc1cccc(/C=N/N=C(\N)NO)c1 |  | > 100 µM |  |  |  |  |  |  |  | > 100 µM |  | > 100 µM |  | > 100 µM |  | > 100 µM |  | 27.9 µM | > 100 µM | 
16 | CCCCCCCCCCCC(=O)OCCOCCOCCOCCOCCOCc1ccc(OC)cc1 |  | > 100 µM |  | > 100 µM |  |  |  |  |  | > 100 µM |  | > 100 µM |  | > 100 µM |  | > 100 µM |  | > 100 µM | > 100 µM | 
17 | CN(C)c1nc(=Nc2ccc3ccccc3c2)ss1 |  | > 100 µM |  | 52.5 µM |  |  |  |  |  | > 100 µM |  | > 100 µM |  | > 100 µM |  | > 100 µM |  | 71.1 µM | > 100 µM | 
18 | CCOC(=O)C(C)(c1cn(C)c2ccccc12)c1cn(C)c2ccccc12 |  | > 100 µM |  | > 100 µM |  |  |  |  |  | > 100 µM |  |  |  | > 100 µM |  |  |  | > 100 µM | > 100 µM | 
19 | COc1ccc(OC)c(NC(=O)CCC/C(CC(=O)c2ccc(O)c(OC)c2)=N\NC(=O)C[N+](C)(C)C)c1 |  | > 100 µM |  | > 100 µM |  |  |  |  |  | > 100 µM |  | > 100 µM |  | > 100 µM |  | > 100 µM |  | > 100 µM | > 100 µM | 
20 | C=C1CC[C@@H]2[C@](C)(COC(C)=O)[C@@H](O)CC[C@@]2(C)[C@@H]1COc1ccc2ccc(=O)oc2c1 | > 100 µM | > 100 µM | 26.3 µM | > 100 µM | > 100000 nM | > 100 µM | > 100 µM | > 100 µM | > 100 µM | > 100 µM | > 100000 nM | > 100 µM | > 100 µM | > 100 µM | > 100 µM | > 100 µM | > 100000 nM | > 100 µM |  | 
